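Each compound was tested at five concentrations against cells in 96-well plates for 48 hours. TGI is the concentration that stops growth completely.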

This note sets out measurements from PubChem BioAssay (NCI).

Experiment in all cases: NCI anticancer screen, dose series, 48 h
Assay [1] deals with CAKI-1 renal.
Assay [2] deals with HCC-2998 colon.
In assay [3] the test system is HT29 colon.
Assay [4] deals with K-562 leukemia.
For assay [5], the system named is LOX IMVI melanoma.
Assay [6] concerns SK-MEL-5 melanoma.
Assay [7] deals with SNB-19 CNS.
For assay [8], the system named is UACC-257 melanoma.
Assay [9] relates to MALME-3M melanoma.
Assay [10] deals with SR leukemia.

As to `O=C(CN1C(=O)CC(c2ccccc2)(c2ccccc2)C1=O)N1CCN(CCO)CC1`, the TGI in [1], in assay [2], in [3], in assay [4], in assay [5] and in assay [6] was more than 100 µM throughout. Further, the TGI in assay [7] and in assay [8] was more than 100 µM each time.

As to `CC1OC(O[C@H]2C3C=CO[C@@H](OC4OC(CO)C(O)C(O)C4O)C3[C@@]3(COC(=O)/C=C/c4ccccc4)O[C@@H]23)C(O)C(O)C1O` (stereo not given in full), the TGI in [1], in [2], in assay [3], in assay [4], in [5] and in assay [9] was more than 100 µM in each case. In addition, the TGI in assay [6], in assay [7] and in assay [8] was more than 100 µM each time.

Turning to `CN1CCN(Cc2cc3c(nn2)-c2ccccc2C3=O)CC1`, the TGI is more than 100 µM in assay [1]; more than 100 µM in [3]; more than 100 µM in [4]; 39.2 µM in assay [9]; 35.1 µM in assay [6]; more than 100 µM in assay [7]. The TGI is more than 100 µM in assay [10] and 37.1 µM in assay [8].

In the case of `Nc1ncnc2c1ccn2C/C=C/CO`, the TGI in [1], in assay [2], in [3], in [4], in assay [5] and in [9] was more than 100 µM in each case. For the same compound, the TGI in [6], in assay [7] and in assay [8] was more than 100 µM in each case.

Turning to `C=C(C)[C@H]1C2=CC(C(=O)OC)=C(C[C@H](C(=C)C)[C@@H](O)[C@@H](O)C3=C[C@H]1OC3=O)O2`, the TGI in assay [1], in [3], in assay [4], in assay [5], in assay [9] and in assay [6] was more than 100 µM throughout. For the same compound, the TGI in assay [7] and in assay [8] was more than 100 µM throughout.

For the compound `C/C1=C\[C@H](C)C[C@H](C)OC(=O)[C@H](C)NC(=O)[C@@H](Cc2ccc(O)c(Br)c2)N(C)C(=O)[C@H](C)NC(=O)[C@@H](C)C1`, the TGI in assay [1] was 0.0274 µM; in [2], more than 25 µM; in assay [3], more than 3.13 µM; in [4], more than 25 µM; in assay [5] it was 0.394 µM; in assay [9], 2.32 µM. For the same compound, the results for the TGI in [6], in assay [7] and in [8] were 0.315 µM, 9.32 µM and 14.8 µM, respectively.

For `CSc1nc2c(c(N(C)C)n1)C(O)n1c(nc3ccccc31)S2` (stereo not given), the TGI was more than 100 µM in assay [1]; more than 100 µM in assay [2]; more than 100 µM in assay [3]; more than 100 µM in assay [4]; 75.5 µM in [5]; more than 100 µM in assay [9]. For the same compound, the TGI in assay [6] was more than 100 µM; in [7] it was more than 77.9 µM; in assay [8], more than 100 µM.

With `CN(C)Cc1cc(C(=O)/C=C/c2ccc([N+](=O)[O-])cc2)cc(CN(C)C)c1O`, the TGI in [2] is 32.5 µM; in assay [3] it was 25 µM; in assay [4] it was more than 100 µM; in [5] it was 5.5 µM; in assay [6], 23.4 µM; in [7], more than 100 µM. Moreover, the values for the TGI in assay [10] and in assay [8] were 22.2 µM and 33.6 µM, respectively.

With `COC1OC2COC(c3ccccc3)OC2C(O)C1OC(=S)c1ccccc1` (stereo not given), the TGI was 80.4 µM in [1]; 47.9 µM in assay [3]; more than 100 µM in assay [4]; 21.4 µM in assay [5]; 71.6 µM in [9]; 61.3 µM in [6]. Further, the TGI was more than 100 µM in [7], 85.5 µM in assay [10] and more than 100 µM in assay [8].

Consider `Cc1cc(N(C)C)c2ccccc2[n+]1CCCCCCCCCC[n+]1c(C)cc(N(C)C)c2ccccc21`, for which the TGI in assay [1] was 20 µM; in assay [2] it was 13.5 µM; in assay [3], more than 35 µM; in [4] it was more than 35.3 µM; in [5] it was 3.24 µM; in [9], more than 41.6 µM. For the same compound, the figures for the TGI in [6], in assay [7] and in [8] were 1.07 µM, 8.19 µM and 2.3 µM, respectively.

`N#CC(c1ccccc1)N(CCOCCOCCN(C(=O)c1ccccc1)C(C#N)c1ccccc1)C(=O)c1ccccc1` (stereo not given): the TGI in assay [1], in assay [2], in [3], in assay [4], in assay [5] and in assay [9] was more than 100 µM each time. Further, the TGI in assay [6], in assay [7] and in assay [8] was more than 100 µM each time.

For `CC1(C)C=CC(=O)C(O)C(C)(C)C1=O` (stereo not given), the TGI in assay [1], in [3], in [4], in assay [5], in assay [9] and in [6] was more than 100 µM each time. The TGI in [7] and in assay [8] was more than 100 µM in each case.

Turning to `COc1ccc(CC(N)=O)cc1OC`, the TGI in assay [1] is more than 575 µM; in [2], more than 1250 µM; in assay [3] it was more than 1250 µM; in assay [4], more than 1250 µM; in [5] it was more than 1250 µM; in [9] it was more than 1250 µM. The figures for the TGI in assay [6], in assay [7] and in [8] were more than 1250 µM, more than 1250 µM and more than 580 µM, respectively.

Regarding `Nc1ncc2c(n1)-c1ccccc1OC2N1CCCC1` (stereo not given), the TGI in assay [1], in assay [3], in [4], in [5], in assay [9] and in [6] was more than 100 µM each time. Also, the TGI in [7], in assay [10] and in [8] was more than 100 µM in each case.

`O=C1NC(O)CCN1C1OC(CO)C(O)C1O` (stereo not given): the TGI in [1], in assay [2], in assay [3], in [4], in assay [5] and in [9] was more than 250 µM each time. In addition, the TGI in [6] was more than 92 µM; in assay [7], more than 250 µM; in [8], more than 250 µM.
